Reference: PubChem BioAssay AID449764 (Southern Research Specialized Biocontainment Screening …, 2010)

Test system: Mycobacterium tuberculosis H37Rv growth inhibition, no glycerol
Experiment: Confirmatory growth inhibition assay, Mycobacterium tuberculosis H37Rv, absence of glycerol (AID 449764);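 also: growth read after 7 days of incubation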
Conditions: for IC90: measured here: IC90 growth inhibition

| Structure (SMILES) | IC50 [µM] | IC90 [µM] |
| --- | --- | --- |
| COc1ccc(SN=C2C(C)=CC(=O)C=C2C)cc1 | 22.4 | 24.9 |
| COc1cc(/C=N/NC(=O)COc2ccc(C)cc2)ccc1OC(=O)c1cccs1 | 25.5 | 30.1 |
| Cn1/c(=N/NC(=O)c2cccc(OC(F)F)c2)sc2ccccc21 | 9.17 | 24.1 |
| Oc1ccccc1NCC(O)Cn1ccc2ccccc21 (configuration not stated) | 11.5 | 12.3 |
| CCSc1ccc2c(c1)N(CCCN1CCN(C)CC1)c1ccccc1S2 | 23.1 | 27.2 |
| O=C(CCc1nnc(CCCc2ccccc2)o1)NCCCC1CCCC1 | 21.5 | 24.9 |
| COCCCn1c(SCc2cccc(OC)c2)nc2cc(OC)c(OC)cc2c1=N | 33.9 | 44.6 |
| Cc1ccccc1N1CCN(c2ncnc3c2cnn3Cc2ccc(Cl)cc2)CC1 | 56.4 | > 100 |
| CCOC(=O)CSc1ncc(OC)c(Sc2ccc(OC)cc2)n1 | 18.1 | 54.3 |
| ClCc1nc2ccccc2c2ccccc12 | 20.6 | 28.4 |
| O=C(c1ccc(-c2ccccc2)c(F)c1)C1CCCN(C(=O)c2cncs2)C1 (configuration not stated) | 32.5 | 49.4 |
| COC(=O)c1ccc(CSc2nc(C(F)(F)F)c3c(c2C#N)CCC3)o1 | – | > 100 |
| O=C(NC(=S)Nc1ccc(N2CCCCC2)c(Cl)c1)c1cccs1 | 21.2 | 29.2 |
| Cn1c(=O)n(Cc2ccccc2)c(=O)c2c1nc1n2CCCN1C1CCCCC1 | – | > 100 |
| Cn1nc(-c2ccccc2F)c2cc(C(=O)Nc3ccc4c(c3)OCCO4)sc21 | 41.7 | > 100 |
| COC(=O)c1c(NC(=O)CCl)sc(C(=O)N2CCOCC2)c1C | 10 | 23.1 |
| Cn1c(=O)c(C(=O)NNC(=O)c2cccc(Cl)c2)c(O)c2ccccc21 | 2.78 | 3.14 |
| CC(C)(C)OC(=O)NCCCCCc1nnc(SCc2ccc(F)cc2)o1 | 75 | > 100 |
| Cn1cnnc1SCc1ccc(C(=O)N=Nc2c(O)n(Cc3ccc(Cl)cc3)c3ccccc23)cc1 | 3.04 | 3.38 |
| Cc1ccc(-n2nc3c(N4CCC(C(=O)NCc5ccccc5C)CC4)nnc(C)c3c2C)cc1 | 71.8 | > 100 |
| N#Cc1nc(-c2ccc(OCc3ccccc3)cc2)oc1NCCCn1ccnc1 | 37.5 | 43 |
| O=C(/C=C/c1cc(Br)ccc1O)c1ccco1 | 15.7 | 20.4 |

| Structure (SMILES) | IC50 [µM] | IC90 [µM] |
| --- | --- | --- |
| CCOc1cc(NC(=O)CCl)c(OCC)cc1NC(C)=O | 0.95 | 51.8 |
| CCOC(=O)c1ccc(NC2=CC(=O)C(=O)c3ccccc32)cc1 | 37.7 | 48.3 |
| CC(C)CS(=O)(=O)C1=NN2C(=N)/C(=C\c3ccc(OC(=O)c4ccco4)cc3)C(=O)N=C2S1 | 20.9 | 26.5 |
| CN=c1scc(-c2ccccc2Br)n1/N=C/c1ccc[nH]1 | 88.3 | 92.2 |
| CCCOc1cccc(-c2nn(-c3ccccc3)cc2/C=C(\C#N)C(=O)NCCCn2ccnc2)c1 | 63.2 | 78.3 |
| O=c1[nH]c(CN2CC=C(c3ccccc3)CC2)nc2cc(C(F)(F)F)ccc12 | 93.7 | 98.9 |
| O=C(N/N=C\C=C\c1ccc([N+](=O)[O-])o1)c1cccs1 | 10.8 | 15.1 |
| CCOc1ccc(-c2cc(CCCC(=O)NCCC(C)C)no2)cc1 | 22.6 | 25.7 |
| c1ccc(-c2nnc(-c3ccccn3)nn2)nc1 | 6.07 | 6.86 |
| CCOC(=O)CNC(=O)c1sc2ncnc(N3CCc4ccccc4C3)c2c1C | 79.1 | 97.7 |
| CC1(C)C2CCC1(C)C(OCC[N+](C)(C)CC(=O)OC1CCCCC1)C2 (configuration not stated) | 12 | 13.1 |
| CCc1cc(/C(Cc2ccccn2)=N\Nc2ccccc2)c(O)cc1O | 85.7 | 94.6 |
| CC1=NN(c2ccccc2)C(=O)C1C(=O)c1ccccc1 (configuration not stated) | 50.6 | 78 |
| CCCCS/C(N)=N/N=C/c1cc(C)ccc1O | 22.7 | 34.1 |
| C(=N\Nc1nc(-c2ccccc2)cs1)/c1ccncc1 | 62.7 | 79.9 |
| COc1ccccc1NC(=O)CN1CCN(CC(=O)Nc2ccc3c(c2)OCO3)CC1 | 39.2 | 60 |
| O=C(COC(=O)C1=COCCO1)NCc1ccc(Cl)cc1 | 28.1 | > 100 |
| COc1ccccc1C(=O)NNC(=O)C(=O)NCc1ccccc1 | 22.8 | 40.6 |
| O=C(CN1CCN(c2nc(-c3ccc(F)cc3)cs2)CC1)NCc1ccc2c(c1)OCO2 | 38.1 | 55.6 |
| COc1cc(NC(=O)c2ccc(COc3ccccc3Br)o2)cc(OC)c1OC | 67 | > 100 |
| Cc1ccccc1N1CCN(C(=O)c2ccc(Oc3ccc(C(F)(F)F)cn3)cc2)CC1 | 30.2 | 54.6 |
| O=C(c1cc2cc(F)ccc2[nH]1)N(Cc1cccnc1)CC1CCCN(C2CCCCC2)C1 (configuration not stated) | 42.6 | 46.1 |

| Structure (SMILES) | IC50 [µM] | IC90 [µM] |
| --- | --- | --- |
| Clc1ccc(CCC(Cn2ccnc2)Sc2c(Cl)cccc2Cl)cc1 (configuration not stated) | 11.8 | 13.3 |
| COc1ccc(OCC(=O)Nc2c(C(=O)N(CCN(C)C)Cc3ccco3)oc3ccccc23)cc1 | 41.8 | 45.9 |
| Cn1c(SCc2ccccc2)nc(N)c(N=O)c1=O | 18.4 | 25.6 |
| CCC(=O)Oc1ccc(C(=O)Nc2ccc3c(c2)C(=O)N(C2CCCCC2)C3=O)cc1 | 24.1 | 28.3 |
| CC1(C)c2[nH]c3ccccc3c2C[C@@H]2C(=O)N(Cc3ccccc3F)C(=O)N21 | 49.3 | > 50 |
| Cc1cc2oc3ccc(NCCCn4ccnc4)cc3c(=O)c2cc1C | 23.2 | 25.7 |
| COc1cc2c(C(=O)N3CCN(c4cccc(Cl)c4)CC3)cn(CC(C)C)c(=O)c2cc1OC | 47.4 | 73.4 |
| Cc1ccc(C(=O)c2oc3ccc(Cl)cc3c2NC(=O)CN2CCN(C)CC2)cc1 | 14.9 | 19.6 |
| CCn1c(C)nc2cc(C(=O)OC(C(F)(F)C(F)F)C(F)(F)C(F)F)ccc21 | 21.2 | 25.8 |
| CCN1C(N(C)CCc2c[nH]c3ccccc23)=N[C@@H](c2cccc(C(F)(F)F)c2)C(C(=O)OC)=C1C | 22 | 25 |
| O=C(CSc1ncnc2nc[nH]c12)c1ccc(Cl)cc1 | 19.1 | 25.4 |
| CNC(=O)COC(=O)c1ccc(-c2nc3ccccc3s2)s1 | 9.68 | 16.3 |
| c1ccc(-c2n[nH]c(-c3ccccn3)n2)cc1 | 20.5 | 27.5 |
| O=C1N=C(N2CCC(Cc3ccccc3)CC2)S/C1=C/c1cn[nH]c1-c1ccccc1 | 78.9 | > 100 |
| Clc1ccc2c(c1)C(c1ccccc1Cl)=NCc1nnc(N3CCN(CCOc4ccccc4)CC3)n1-2 | 34.8 | 46.1 |
| CCOc1ccc(NC(=O)c2sc3nc(C)nc(N4CCOCC4)c3c2C)cc1 | 30.3 | 57 |
| c1ccc(-c2nccc(-c3ccc(-n4cnc5ccccc54)cc3)n2)nc1 | 19 | 23.7 |
| CN1CCN(C(=O)/C=C/c2cn(-c3ccccc3)nc2-c2ccc3c(c2)OCCO3)CC1 | – | > 100 |
| C=CCN(CC=C)C(=S)NC(=O)c1ccc(-c2ccccc2)cc1 | 13.6 | 22.4 |
| O=C(OCc1ccccc1F)c1cnc(Cl)c(Cl)c1 | 22 | 55 |
| Cc1sc2ncnc(N3CCC(C(=O)N(CC(C)C)c4nc5ccccc5s4)CC3)c2c1C | – | > 100 |
| O=C(CN1CCN(Cc2ccc(Cl)cc2)CC1)N/N=C/C=C/c1ccccc1[N+](=O)[O-] | 36.3 | 45.6 |

| Structure (SMILES) | IC50 [µM] | IC90 [µM] |
| --- | --- | --- |
| CN(C)CCCN(C(=O)c1ccc([N+](=O)[O-])s1)c1nc2cc3c(cc2s1)OCCO3 | 35.8 | 62.2 |
| CCn1c2ccccc2c2cc(CNCc3ccc(OC)cc3OC)ccc21 | 12.2 | 14 |
| CN1CCN(C2=Cc3ccc(Cl)cc3Sc3ccc(F)cc32)CC1 | 25.9 | 35.5 |
| CCCOc1ccc(N2CC(C(=O)Nc3ccccn3)CC2=O)cc1 (configuration not stated) | 36.4 | > 100 |
| O=C(Oc1ccc(-c2cn3c(n2)SCC3)cc1)c1ccccc1 | 73.2 | > 100 |
| CC1(c2cc([N+](=O)[O-])cc([N+](=O)[O-])c2)CC(C)(C)N(C(=O)c2ccccc2)c2ccccc21 (configuration not stated) | 20.8 | 28.9 |
| CCOC(=O)C1CCN(C(=O)CSCc2nc(-c3ccc(OCC)cc3)oc2C)CC1 | 46 | 49.2 |
| Cn1c(-c2c(N)n(CCc3ccccc3)c3nc4ccccc4nc23)nc2ccccc21 | 17.9 | > 100 |
| COc1ccc(C[C@H](N)C(=O)N[C@H]2[C@@H](O)[C@H](n3cnc4c(N(C)C)ncnc43)O[C@@H]2CO)cc1 | 3.95 | 5.82 |
| Cc1ccc(NC(=O)CCl)cc1S(=O)(=O)N1CCCCCC1 | 10.1 | 14.8 |
| O=[N+]([O-])c1ccc(C2Oc3ccccc3C3CC(c4ccccc4)=NN32)s1 (configuration not stated) | 7.13 | 9.52 |
| Cc1ccc(NC(=O)c2cnc(SCC(=O)NCC3CCCO3)n(C)c2=O)cc1C (configuration not stated) | 32 | > 100 |
| O=S(Cc1ccc(Br)cc1)Cc1nnc(SCc2ccc(Cl)cc2)n1-c1ccccc1 (configuration not stated) | 83.2 | > 100 |
| Cc1cc(C)n2nc(/C(C#N)=C/c3ccccn3)c(C#N)c2n1 | 19.4 | 35.5 |
| Cc1cc(/C=C\c2ccc3cc(N(C)C)ccc3[n+]2C)c(C)n1-c1ccccc1 | 3.26 | 4.49 |
| Cc1cc2nc(/N=C(\N)NC(=O)C(C)C)nc(C)c2cc1C | 18.1 | > 100 |
| Cc1ccc(CN2CC(C(=O)OCc3ccccc3Cl)CC2=O)cc1 (configuration not stated) | 11.1 | 29.6 |
| Cc1ccc(Cn2ccsc2=NC(=O)CCl)cc1 | 2.86 | 6.73 |
| COC(=O)[C@H](CC(C)C)NC(=O)c1cc2c(cn1)[nH]c1ccccc12 | 19.9 | 39.8 |
| Cc1ccc(N2C(=O)C(F)(F)C2c2ccccc2)cc1 (configuration not stated) | 4.61 | 7.9 |
| CCCCSCCCNC(=O)c1cn(CC)c2ccc(S(=O)(=O)N3CCOCC3)cc2c1=O | 44.3 | 50.8 |
| O=C(Nc1cc(N2CCOCC2)ncn1)NC1(C(F)(F)F)Oc2ccc(Cl)cc2O1 (configuration not stated) | 23.6 | 26.9 |
